Measurements published in patent US20140378408A1, “NUCLEOSIDE 5'-PHOSPHOROTHIOATE ANALOGUES AND USES THEREOF” (BAR-ILAN UNIVERSITY, an Israeli University, priority 2012, published 2014).

Legend:
[1] = biological target: T1, human P2Y2-R (Homo sapiens, UniProt P41231); test: [Ca^2+]i response of 1321N1 astrocytoma cells expressing P2Y2-R GFP; type: cell-based; conditions: for activity at the P2Y2 receptor: isomer A of APPCCl2P-α-S at 100 μM; for EC50: agonist, read-out: EC50 at the P2Y2 receptor
T1 construct: expressed in transfected cells; host or cells: 1321N1 astrocytoma cells
T1 sequence (P41231 whole entry): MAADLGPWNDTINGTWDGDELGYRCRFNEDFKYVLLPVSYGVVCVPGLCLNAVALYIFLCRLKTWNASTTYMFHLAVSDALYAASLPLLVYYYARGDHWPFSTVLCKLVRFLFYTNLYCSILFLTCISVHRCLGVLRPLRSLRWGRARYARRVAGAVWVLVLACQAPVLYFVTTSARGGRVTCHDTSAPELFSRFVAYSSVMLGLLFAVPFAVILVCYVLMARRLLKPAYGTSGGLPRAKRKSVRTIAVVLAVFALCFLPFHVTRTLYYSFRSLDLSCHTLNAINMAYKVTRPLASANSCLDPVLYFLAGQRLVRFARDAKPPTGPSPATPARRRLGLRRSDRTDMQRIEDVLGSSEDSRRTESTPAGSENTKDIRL
Method: GFP constructs of human P2Y2-R, P2Y1-R and P2Y11-R were stably expressed in 1321N1 astrocytoma cells, which lack endogenous expression of P2X- and P2Y-receptors. The respective cDNA of the receptor gene was cloned into a pEGFPN1 vector and after transfection, using FuGENE 6 Transfection Reagent (Roche Molecular Biochemicals, Mannheim, Germany), cells were selected with 0.5 mg/ml G418 (geneticine; Merck Chemicals, Darmstadt, Germany) and grown in DMEM supplemented with 10% serum (FCS), 100 U/ml penicillin and 100 U/ml streptomycin at 37° C. and 5% CO2. The expression and cell membrane localization of the respective P2Y receptors was confirmed through the analysis of the GFP fluorescence. The functionality of the expressed GFP-labeled receptor in cells was verified by recording a change of [Ca^2+]i after stimulation with the appropriate receptor agonist.
1321N1 astrocytoma cells transfected with the respective plasmid for P2Y-R-GFP expression plated on coverslips (22 mm diameter) and grown to approximately 80% density, were incubated with 2 μM fura 2/AM and 0.02% pluronic acid in Na-HBS buffer (Hepes buffered saline: 145 mM NaCl, 5.4 mM KCl, 1.8 mM CaCl2, 1 mM MgCl2, 25 mM glucose, 20 mM Hepes/Tris pH 7.4) for 30 min at 37° C. The cells were superfused (1 ml/min, 37° C.) with different concentrations of nucleotide in Na-HBS buffer. The nucleotide-induced change of [Ca^2+] was monitored by detecting the fluorescence intensities with excitations at 340 nm and 380 nm. Only GFP-labeled cells were analyzed. Microsoft Excel (Microsoft Corp., Redmond, Wash., USA) and SigmaPlot (SPSS Inc., Chicago, Ill., USA) were used to derive the concentration-response curves and EC50 values from the average response amplitudes obtained in at least three independent experiments (Ecke et al., 2006; Ecke et al., 2008). Only cells with a clear GFP-signal and with the typical calcium response kinetics upon agonist pulse application were included in the data analysis. The nucleotide induced change of [Ca^2+]i was monitored by detecting the respective emission intensity of fura 2/AM at 510 nm with 340 nm and 380 nm excitations (Ubl et al., 1998). The average maximal amplitude of the responses and the respective standard errors were calculated from ratio of the fura 2/AM. The GFP-tagged P2Y receptors are suitable for pharmacological and physiological studies, as previously reported (Tulapurkar et al., 2004; Tulapurkar et al., 2006; Zylberg et al., 2007).

[2] = biological target: T2, human NPP3 (Homo sapiens, UniProt O14638); test: Inhibition of NPP3 activity; type: biochemical; conditions: for inhibition of pnp-TMP hydrolysis by NPP3: analogue and pnp-TMP 100 μM; for inhibition at 100 µM: read-out: inhibition of NPP3 activity
T2 construct: made in house; host or cells: COS-7 cells (transfected; protein extract / cell lysate)
T2 sequence (O14638 1-875): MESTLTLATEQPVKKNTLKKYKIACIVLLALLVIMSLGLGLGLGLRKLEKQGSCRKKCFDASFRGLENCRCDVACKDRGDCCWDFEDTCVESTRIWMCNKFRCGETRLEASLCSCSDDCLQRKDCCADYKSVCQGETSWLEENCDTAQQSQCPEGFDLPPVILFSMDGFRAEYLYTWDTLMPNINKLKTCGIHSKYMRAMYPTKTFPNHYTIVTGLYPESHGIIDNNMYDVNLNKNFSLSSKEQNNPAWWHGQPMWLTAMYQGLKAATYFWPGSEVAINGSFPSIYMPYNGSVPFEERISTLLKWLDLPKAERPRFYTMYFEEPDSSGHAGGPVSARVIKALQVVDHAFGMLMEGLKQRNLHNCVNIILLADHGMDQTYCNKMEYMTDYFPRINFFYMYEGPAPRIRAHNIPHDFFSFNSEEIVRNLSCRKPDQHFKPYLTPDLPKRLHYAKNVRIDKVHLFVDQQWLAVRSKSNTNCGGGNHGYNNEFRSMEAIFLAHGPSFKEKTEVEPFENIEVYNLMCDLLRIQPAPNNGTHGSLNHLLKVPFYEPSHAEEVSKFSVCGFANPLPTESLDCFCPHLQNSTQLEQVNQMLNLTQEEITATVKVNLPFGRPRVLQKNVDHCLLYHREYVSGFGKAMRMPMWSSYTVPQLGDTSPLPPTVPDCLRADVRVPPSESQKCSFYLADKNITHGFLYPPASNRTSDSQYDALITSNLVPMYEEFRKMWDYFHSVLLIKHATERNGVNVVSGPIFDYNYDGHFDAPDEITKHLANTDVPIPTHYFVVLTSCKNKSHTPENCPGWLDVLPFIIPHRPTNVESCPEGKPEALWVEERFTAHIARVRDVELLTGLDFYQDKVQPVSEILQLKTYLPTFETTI
Method: Pnp-TMP hydrolyses were carried out at 37° C. in 0.2 ml of the following incubation mixture: in mM, 1 CaCl2, 130 NaCl, 5 KCl and 50 Tris, pH 8.5, with or without the analogue tested and/or substrates. Substrates and analogues were all used at the final concentration of 100 μM. […] For pnp-TMP hydrolysis, the production of para-nitro-phenol was measured at […], 15 min after the initiation of the reaction.
The samples were centrifuged for 5 min at 13,000×g. Supernatants were neutralized with 1 M KOH (Fisher Scientific, Ottawa, ON, Canada) at 4° C. and centrifuged for 5 min at 13,000×g.

Molecule | activity at the P2Y2 receptor [1] | inhibition of pnp-TMP hydrolysis by NPP3 [2] | inhibition at 100 µM [2] [%] | EC50 [1] [µM] | further results
Nc1ncnc2c1ncn2[C@@H]1O[C@H](COP(O)(=S)OP(=O)(O)C(Cl)(Cl)P(=O)(O)O)[C@@H](O)[C@H]1O (single isomer, unassigned; isomer a) [APPCCl2P-α-S (isomer A), adenosine 5′-[Pα-thio]-β,γ-(dichloromethylene)triphosphate] | no activity as agonist | – | – | – | –
adenosine-5′-tetrathiobisphosphonate | – | 7% | – | – | –
Nc1ncnc2c1ncn2[C@@H]1O[C@H](COP(O)(=S)OP(=O)(O)C(Cl)(Cl)P(=O)(O)O)[C@@H](O)[C@H]1O (single isomer, unassigned) [APPCCl2P-α-S, adenosine 5′-[Pα-thio]-β,γ-(dichloromethylene)triphosphate] | – | – | 23 to 43 | > 10 | inhibition of the hydrolysis of ATP by NPP3 [2]: 33%
Nc1ncnc2c1ncn2[C@@H]1O[C@H](COP(=O)(O)OP(O)(O)=S)[C@@H](O)[C@H]1O [ADP-β-S, adenosine 5′-[β-thio]diphosphate, reference compound] | – | less than 50% | – | – | –
di-adenosine-5′,5″-tetrathiobisphosphonate | – | 20% | – | – | –
Nc1ncnc2c1ncn2[C@@H]1O[C@H](COP(=O)(O)CP(=O)(O)OP(O)(O)=S)[C@@H](O)[C@H]1O [APCPP-γ-S, adenosine 5′-[Pγ-thio]-α,β-methylenetriphosphate] | neither agonist nor antagonist | – | 23 to 43 | > 10 | –
